This passage reports melting point results from a melting point compilation (Tetko et al.; mined from patent text by program, amines drawn as free bases though some values may be those of a salt).

On to `CC(=O)OC1CSC(Oc2cncc(-c3ccc(C)c(C)c3)c2)C(OC(C)=O)C1OC(C)=O` (stereo not drawn), for which the melting point is 131 °C.
Under `CCN1CCN(c2cc3c(cc2F)c(=O)c(C(=O)O)c2n3C(C)S2)CC1` (stereo not drawn) stands 211 to 214 °C; under `CN1c2cccc3cccc(c23)N(CCCN2CC=C(c3ccccc3)CC2)S1(=O)=O`, 146 °C.
As to `Nc1ccc(-c2nnn(-c3ccc(C(F)(F)F)cc3F)c2N)cc1`, the melting point was in the range of 164 to 165 °C.
With `O=C1CC(O)CC(/C=C/c2ccccc2-c2ccccc2)O1` (stereo not drawn), the melting point is 89 to 91 °C.
The molecule `O=C(NCc1ccccc1)c1ccnc(-n2ccc(OCc3ccccc3)cc2=O)c1` gave a melting point of 158 to 161 °C.
`O=S1(=O)NCc2cccc(Cl)c21` returned a melting point of 159 to 161 °C.
Under `O=C(N1CCc2ccc(S(=O)(=O)F)cc2C1)C(F)(F)F` stands 99 to 103 °C.
As for `CCOCc1nc2c(N)nc3ccc(O)cc3c2n1CCCCNC(=O)Nc1ccccc1`, the melting point was in the range of 218 to 221 °C.
Under `CS(=O)(=O)c1ccc(-c2cc3cccccc-3c2-c2ccccc2)cc1` stands 139 to 140 °C; under `CCOC(=O)c1c(CC)nn(C)c1NC(=O)Cc1ccc(OC)cc1`, 112 to 113 °C; under `C(=Cc1ccccc1)CN1CCN(C(c2ccccc2)c2ccccc2)CC1`, 110 °C.
In turn, `O=C1c2ccccc2CN1C1CCN(c2ccc(C(O)c3ccccc3)cc2)CC1` (stereo not drawn) yielded a melting point of 211 to 214 °C.
`CCOC(=O)C1(C(=O)OCC)CCC2(CC1)c1cc(OCC)c(OCC)cc1CCN2C(=O)OCc1ccccc1` displayed a melting point of 88.4 to 89.1 °C.
Under `CC(c1ccc2c(=O)c3ccccc3ccc2c1)C1N(c2ccccc2)CCN1c1ccccc1` (stereo not drawn) stands 81 to 89 °C; under `CC(C)(CCCCCCCCCCC(C)(C)C(Cl)(Cl)C(=O)O)C(Cl)(Cl)C(=O)O`, 154 °C; under `c1cc(-c2nc3c4c(ncc3[nH]2)CCOC4)no1`, > 300 °C.
On to `O=C(O)c1cn([C@@H]2C[C@@H]2F)c2cc(N3C[C@@H]4NCCO[C@H]4C3)c(F)cc2c1=O`, for which the melting point is > 250 °C.
`C[C@H](NC(=O)c1nc(CCCc2ccccc2)c[nH]1)C(=O)NC(C=O)CC(=O)O` (stereo partly drawn) had a melting point of 94 to 96 °C.
`CC(C(=O)NC1CC(C(=O)O)Nc2cc(Cl)cc(Cl)c21)c1ccccc1` (stereo not drawn) showed a melting point of 210 to 212 °C.
As to `CCCc1cn2ccccc2c1C(=O)c1ccc(O)cc1`, the melting point lay within 210 to 214 °C.
Regarding `O=c1c2c[nH]c3ccncc3c-2nn1-c1ccccc1`, the melting point was 334 to 337 °C.
Take `COc1ccc(-n2cnc(OC(C)C(=O)O)n2)cc1` (stereo not drawn): the melting point was 155 to 157 °C.
Regarding `COC(=O)c1cc(Oc2ccnc(Cl)c2)cc2ccccc12`, the melting point is 103 to 104 °C.
With `CCCCC(CC)C(=O)C=P(c1ccccc1)(c1ccccc1)c1ccccc1` (stereo not drawn) the figure was 106 to 108 °C; with `CC[C@H](C)[C@H](NC(=O)Nc1ccccc1C(F)(F)F)C(=O)N[C@H](CO)Cc1c[nH]c2ccccc12`, 232 to 234 °C; with `O=C(CCC1(C(=O)O)CCCC1)OCc1ccc([N+](=O)[O-])cc1`, 78 to 80 °C.
In turn, `CC(=O)Nc1cc(C)cc(C=O)n1` showed a melting point of 202 °C.
On to `COc1cc(NC(=O)C(C#N)=CNc2ccc(OC)c(Br)c2)c(Cl)cc1Cl`, for which the melting point was > 250 °C.
For the molecule `CN1CCCN(Cc2c(Cl)ccc(C(=O)C3=C(Sc4ccccc4)CCCC3=O)c2Cl)C1=O`, the melting point is 140 °C.
For the molecule `CC(=O)OCC1CC2c3cccc4c3C(CC2N(C)C1)CN4C(C)=O` (stereo not drawn), the melting point is 172 to 177 °C.
`C=CCn1nc(CCCC)c(Cc2ccc(-c3ccccc3-c3nnn[nH]3)cc2)c1COC` registered a melting point of 39 to 41 °C.
`COc1cc(C(C)C)cc(OC)c1-c1nc(N)sc1CCC1CCCCC1` displayed a melting point of 143 °C.
With `CC1CC(=O)c2c(SCc3ncn(C)n3)ccc(-c3nccs3)c2C1` (stereo not drawn) the figure was 130 to 131 °C; with `CCCCc1nn(-c2cc(NC(=S)CCC)ccc2Cl)c(=O)n1Cc1ccc(-c2ccccc2S(=O)(=O)NC(=O)OC(C)(C)C)cc1F`, 115 to 117 °C.
Under `COc1ccc([C@@H]2Sc3ccccc3N(CCN(C)C)C(=O)[C@@H]2OC(=O)Nc2ccccc2)cc1` (relative stereo) stands 106 to 108 °C; under `Cn1c(CCCO)nc2ccccc21`, 107 °C.
As for `CCC(=O)Cc1ccc(OCc2nnn[nH]2)cc1`, the melting point is 148 to 150 °C.
Turning to `CC(=O)CCCCC(=O)Nc1ccccc1`, the melting point is 85.5 to 86.5 °C.
Consider `CCn1c(=N)c(-c2ccc3ccccc3c2)cc2cnc(Nc3ccccc3)nc21`, for which the melting point was 236 to 242 °C.
Take `CCc1c2nc(-c3cc(S(C)(=O)=O)ccc3OCC(C)C)[nH]c(=O)c2nn1Cc1cccnn1`: the melting point was in the range of 244 to 247 °C.
Regarding `S=P12SP3(=S)SP(=S)(S1)SP(=S)(S2)S3`, the melting point was in the range of 165 to 166 °C.
Molecule `CC(C)c1cccc(C(C)C)c1-n1nnn(C(C)C)c1=S` displayed a melting point of 109 to 111 °C.
Take `CCOC1=NS(=O)(=O)C(C#N)=C1N`: the melting point was 228 to 229 °C.
Under `CC(C)(C)c1cc(-c2ccc(C(=O)O)c(C(C)(C)C)c2)ccc1O` stands > 240 °C; under `CCOC(=O)CC(Cc1ccc(OCCc2nc(-c3ccccc3)oc2C)cc1)C(N)=O` (stereo not drawn), 142 °C; under `N#CC(=NNc1ccc(C(F)(F)F)cc1)C(=O)NCc1ccc(Cl)nc1`, 204 to 205 °C.
The molecule `Cc1oc(-c2ccccc2)nc1COc1ccc2cc(CCc3nnn[nH]3)oc2c1` showed a melting point of 177 to 178 °C.
With `Oc1ccc2c(c1)CCN(c1ccc(Cl)cc1)C2` the figure was 122 to 123 °C; with `CN1CCC(=C2c3c(ccn3C)C=Cn3cnnc32)CC1`, 262 °C; with `CCCCCc1nc2c(N)nc3c(c2n1CCCCNS(C)(=O)=O)CCCC3`, 167 to 168 °C.
With `CSc1nccc(C)c1NC(=O)CCCCCSc1nc2ccccc2o1`, the melting point was 122 to 124 °C.
`O=[N+]([O-])c1ccc2oc(-c3ccc(CN4CCOCC4)s3)nc2c1` yielded a melting point of 149 to 151 °C.
The molecule `CNC(=O)CCCC1CCN(Cc2cnc3cc(NC(=O)c4ccc(-c5ccc(F)cc5)cc4)c(C)cc3c2)CC1` showed a melting point of 223 °C.
In the case of `O=C(CI)OCc1ccc([N+](=O)[O-])cc1`, the melting point was in the range of 62.5 to 63.5 °C.
In turn, `O=C(CC1CCCCCC1)Nc1cn(CCO)c2cccc(Cl)c12` yielded a melting point of 79 to 83 °C.
Under `CC(C)(C)Nc1cc(Cl)nc(Cl)n1` stands 192 to 193 °C; under `COCc1cc(C(=O)CBr)on1`, 53 to 54 °C.
For `CCOC(=O)C(C)(C)Oc1ccc(CCCC(=O)NN(Cc2cccc(OC)c2)C(N)=O)cc1`, the melting point lay in the range of 91.9 to 93.4 °C.
`C=CC(=O)c1cc(OC)c(OC)c(OC)c1` displayed a melting point of 46 to 47 °C.
Turning to `O=Cc1c[nH]c2c1ccc1c3ccc(Br)cc3[nH]c12`, the melting point is > 250 °C.
`c1cn2nc(N3CCCC3)c3c(c2n1)CCCC3` showed a melting point of 128 °C.
Regarding `CCN(C(=O)C(C)(C)C)c1ccc(F)cc1F`, the melting point lay within 69 to 71 °C.
Turning to `N#Cc1cc(-c2ccc(Cl)c(Cl)c2)[nH]c1Cl`, the melting point was > 200 °C.
Regarding `COc1c(CC(C(=O)O)C(=O)O)cccc1C(=O)c1ccc(Cl)cc1`, the melting point came to 142 °C.
On to `Cc1c(N2CCOCC2)c(F)cc2c(=O)c(C(=O)O)cn(C3CC3)c12`, for which the melting point was 228 °C.
In turn, `Nc1nc(=O)n(C(=O)Nc2cccc(Cl)c2)cc1F` registered a melting point of 250 to 252 °C.
In the case of `COc1cc2ncc(C#N)c(Nc3ccc4[nH]c(=O)sc4c3)c2cc1OC`, the melting point was 285 to 287 °C.
Molecule `O=C(c1c(Cl)cccc1Cl)n1cnc(-c2ccccc2)c1` came in with a melting point of 135 to 136 °C.
The molecule `O=C(Nc1ccccc1C(c1ccc(O)cc1)c1ccc(O)cc1)c1ccc([N+](=O)[O-])cc1` had a melting point of 258 to 259 °C.
In turn, `COc1cccc(CC(=O)O)c1OCc1nc(OC(C)C)c(C(=O)NCc2ccc(Cl)cc2Cl)s1` yielded a melting point of 113 to 114 °C.
With `OCC1=CC=C(CO)SS1` the figure was 64 to 66 °C; with `CCCCCCCCCCCCC1=C(O)C(=O)c2c(Cl)cccc2C1=O`, 102 to 104 °C; with `C[C@@H]1[C@H](O)[C@@H](C)C=C(S(=O)(=O)c2ccccc2)[C@@H]2O[C@H]12`, 118 to 120 °C.
`CC(C)(C)C(Cc1ccccc1)C(=O)n1ccnc1` (stereo not drawn) registered a melting point of 90 to 91 °C.
`CCCc1cc2c(NCCc3ccccc3)ncnc2s1` registered a melting point of 110 °C.
In turn, `CNC(=O)Nc1ccc(N2CCN(c3ccncc3)CC2)cc1` yielded a melting point of 258 to 260 °C.
In turn, `N[C@@H](CCCCNC(=O)NCc1ccccc1)C(=O)N1CC(F)(F)C(F)(F)C1` showed a melting point of 89 to 92 °C.
Molecule `CCOC(=O)CCNC(=O)C(Cc1ccc(-c2ccccc2)cc1)N(CP(=O)(O)O)C(OC(=O)CC)C(C)C` (stereo not drawn) came in with a melting point of 154 to 158 °C.
With `C=CC(=O)C1C(=O)N(c2ccc(OC)cc2)C1c1ccccc1Cl` (stereo not drawn) the figure was 99 to 100 °C; with `C=C(C)CNc1cc(C(=O)O)cc(S(N)(=O)=O)c1Sc1ccc(N)cc1`, 237 to 240 °C.
Molecule `CCCc1nc2c(n1Cc1ccc(-c3ccccc3-c3nnn[nH]3)cc1)C(C(=O)OCC)N(C(C)=O)CC2` (stereo not drawn) showed a melting point of 184 to 185 °C.
In the case of `CC(=O)Nc1cc(NC(C)=O)cc([N+](=O)[O-])c1`, the melting point was > 290 °C.
With `CCC(C)C(C)CNc1cccc(-c2ccnc3c(C(=O)c4cccs4)cnn23)c1` (stereo not drawn) the figure was 84 to 86 °C; with `O=C(Nc1nccs1)C(CC1CCCC1)c1ccc(-c2cccnc2)cc1` (stereo not drawn), 48 to 52 °C.
With `FC(F)(F)c1c(CNC2Cc3ccccc3C2)ccn2c(CC3CC3)nnc12`, the melting point was > 300 °C.
In turn, `Cc1cccc2cc(C(=O)Cn3ccnc3)ccc12` yielded a melting point of 264 °C.
Take `O=C(COc1ccc(O)cc1)N1CCN(CC(O)Cn2c3ccccc3c3ccccc32)CC1` (stereo not drawn): the melting point turned out to be 155 °C.

The term melting point denotes the temperature, or range, at which the solid turns liquid.
